Assay results as given in article PMC6858373 (Scientific Reports, 2019).
Like-named read-outs stand apart in the source and are kept apart here.

Assays:
[1] = target: full-length P. pyralis luciferase (Photinus pyralis, UniProt P08659, K549A/L550V/N119G/N50D/S548I); type: cell-based
[2] = target: T1, FGF14:Nav1.6 C-tail complex (Homo sapiens, UniProt Q92915+Q9UQD0); experiment: Split-luciferase complementation assay (LCA) in Clone V double stable HEK293 cells; type: cell-based
T1 construct: polymerase chain reaction (PCR) amplification of the FGF14 open reading frame (nt 1–855); C-terminal fragment of Nav1.6 (amino acids 1763–1976) fused with CD4ΔC-tail (amino acids 1–395); expressed in transfected cells
T1 sequence (Q92915 1-252 isoform Q92915-2): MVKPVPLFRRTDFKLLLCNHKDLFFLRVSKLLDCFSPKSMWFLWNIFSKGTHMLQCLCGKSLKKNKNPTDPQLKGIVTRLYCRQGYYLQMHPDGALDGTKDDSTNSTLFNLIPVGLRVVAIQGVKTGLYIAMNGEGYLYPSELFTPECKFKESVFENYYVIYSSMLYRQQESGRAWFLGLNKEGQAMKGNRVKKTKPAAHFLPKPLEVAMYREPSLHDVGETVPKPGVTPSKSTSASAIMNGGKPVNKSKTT
T1 sequence (Q9UQD0 1763-1976 limits assumed): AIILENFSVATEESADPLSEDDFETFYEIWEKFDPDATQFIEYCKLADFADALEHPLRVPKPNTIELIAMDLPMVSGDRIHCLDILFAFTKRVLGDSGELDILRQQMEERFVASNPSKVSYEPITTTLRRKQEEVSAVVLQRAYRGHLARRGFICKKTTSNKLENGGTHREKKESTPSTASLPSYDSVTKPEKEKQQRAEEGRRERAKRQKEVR

[3] = CC_NCI screening, full-length luciferase counter-screen luminescence, normalized to on-plate 0.3% DMSO controls
[4] = CC_NCI screening, full-length luciferase counter-screen, normalized to on-plate 0.3% DMSO controls
[5] = CC_NCI screening, LCA luminescence, biological replicate Set 1, normalized to on-plate 0.3% DMSO controls (n=16 per plate)
[6] = CC_NCI screening, LCA luminescence, biological replicate Set 2, normalized to on-plate 0.3% DMSO controls (n=16 per plate)
[7] = CC_NCI screening, LCA, biological replicate Set 1, normalized to on-plate 0.3% DMSO controls
[8] = CC_NCI screening, LCA, biological replicate Set 2, normalized to on-plate 0.3% DMSO controls
[9] = CC_NCI screening, average of Set 1 and Set 2, normalized to 0.3% DMSO controls
[10] = CC_NCI screening, normalized to on-plate 0.3% DMSO controls

full-length P. pyralis luciferase, sequence (P08659 whole entry N50D/N119G/S548I/K549A/L550V, looked up): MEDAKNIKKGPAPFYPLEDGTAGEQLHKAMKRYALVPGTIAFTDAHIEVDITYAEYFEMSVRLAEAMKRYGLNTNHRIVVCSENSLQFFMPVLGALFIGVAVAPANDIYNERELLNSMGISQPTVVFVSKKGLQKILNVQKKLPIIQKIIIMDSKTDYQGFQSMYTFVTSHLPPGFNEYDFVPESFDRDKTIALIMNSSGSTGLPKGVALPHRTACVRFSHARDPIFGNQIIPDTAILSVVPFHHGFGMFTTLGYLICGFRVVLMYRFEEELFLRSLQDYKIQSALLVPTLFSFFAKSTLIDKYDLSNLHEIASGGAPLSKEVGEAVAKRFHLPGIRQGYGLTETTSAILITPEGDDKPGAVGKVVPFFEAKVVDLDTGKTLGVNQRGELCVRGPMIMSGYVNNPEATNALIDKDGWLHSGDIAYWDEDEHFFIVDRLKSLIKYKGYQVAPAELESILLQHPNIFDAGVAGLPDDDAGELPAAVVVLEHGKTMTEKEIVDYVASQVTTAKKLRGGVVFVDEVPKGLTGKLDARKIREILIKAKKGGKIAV

Molecule | Toxicity Assay % Fluor (Clone V cells) [%] | Toxicity Assay Z-score (Clone V cells) | Luciferase Assay % Lum [1, 3] [%] | Luciferase Assay Z-score [1, 4] | Split Luciferase Assay % Lum Set 1 [2, 5] [%] | Split Luciferase Assay %Lum Set 2 [2, 6] [%] | Split Luciferase Assay Z-score Set 1 [2, 7] | Split Luciferase Assay Z-score Set 2 [2, 8] | Split Luciferase Assay %Lum Avg [2, 9] [%] | Toxicity Assay % Fluor (Clone V cells; human, 16 h, 30 µM) [%] | Toxicity Assay Z-score (Clone V cells; human, 16 h, 30 µM) | other results
C[C@]12CC[C@@H]3c4ccc(OC(=O)N(CCCl)CCCl)cc4CC[C@H]3[C@@H]1CC[C@@H]2OP(=O)(O)O [Estramustine phosphate sodium] |  |  |  |  |  |  |  |  |  |  |  | Toxicity Assay % Fluor (Clone V cells; human): 92.97%; Toxicity Assay Z-score (Clone V cells; human): -0.98; Luciferase Assay % Lum [1]: 86.35%; Luciferase Assay Z-score [1]: -1.75; Split Luciferase Assay % Lum Set 1 [2]: 26.42%; Split Luciferase Assay %Lum Avg [2]: 32.45%; Split Luciferase Assay %Lum Set 2 [2]: 38.49%; Split Luciferase Assay Z-score Set 1 [2]: -5.95; Split Luciferase Assay Z-score Set 2 [2]: -5.00
LE 135 | 98.37 | -0.23 | 97.72 | -0.29 | 44.90 | 74.90 | -4.45 | -2.04 | 59.90 |  |  | 
Fc1ccc(Cl)cc1-c1nc(Nc2ccncc2)c2nccnc2n1 [SD 208] |  |  |  |  |  |  |  |  |  |  |  | Toxicity Assay % Fluor (CTB cell viability fluorescence) (Clone V cells): 107.60%; Toxicity Assay Z-score (CTB cell viability) (Clone V cells): 1.06; Luciferase Assay % Lum (full-length luciferase counter-screen) [1, 10]: 88.62%; Luciferase Assay Z-score (full-length luciferase counter-screen) [1, 10]: -1.46; Split Luciferase Assay Z-score Set 2 ([2]; CC_NCI screening, biological replicate Set 2, normalized to on-plate 0.3% DMSO controls): -3.73; Split Luciferase Assay %Lum Set 2 ([2]; CC_NCI screening, biological replicate Set 2, normalized to on-plate 0.3% DMSO controls (n=16 per plate)): 54.10%; Split Luciferase Assay %Lum Avg ([2]; average of Set 1 and Set 2, normalized to 0.3% DMSO controls): 95.16%
COc1cc2ncnc(Nc3ccc(F)c(Cl)c3)c2cc1OCCCN1CCOCC1 [Gefitinib] |  |  |  |  | 97.08 | 102.99 | -0.24 | 0.24 | 100.03 | 87.95 | -1.68 | Luciferase Assay % Lum [1]: 85.80%
CC(C)(C#N)c1cc(Cn2cncn2)cc(C(C)(C)C#N)c1 [Anastrozole] |  |  | 100.06 | 0.01 | 89.47 | 99.87 | -0.85 | -0.01 | 94.67 | 95.38 | -0.65 | 
C=CC(=O)Nc1cc2c(Nc3ccc(F)c(Cl)c3)ncnc2cc1OCCCN1CCOCC1 [CANERTINIB] |  |  | 50.65 | -6.32 | 28.59 | 34.33 | -5.77 | -5.34 | 31.46 | 84.09 | -2.22 | 
CC(=O)Nc1cccc(-n2c(=O)n(C3CC3)c(=O)c3c(Nc4ccc(I)cc4F)n(C)c(=O)c(C)c32)c1 [Trametinib] |  |  | 95.81 | -0.54 | 101.43 | 79.06 | 0.12 | -1.70 | 90.25 | 92.79 | -1.01 | 
CNC(=O)c1ccccc1Sc1ccc2c(/C=C/c3ccccn3)n[nH]c2c1 [Axitinib] | 91.66 | -1.17 | 24.49 | -9.67 | 32.94 | 31.21 | -5.42 | -5.60 | 32.07 |  |  | 
OCCn1cc(-c2cnc3nnn(Cc4ccc5ncccc5c4)c3n2)cn1 [PF-04217903] | 99.86 | -0.02 | 111.09 | 1.42 | 90.56 | 78.02 | -0.76 | -1.79 | 84.29 |  |  | 
FC(F)c1nc2ccccc2n1-c1nc(N2CCOCC2)nc(N2CCOCC2)n1 [ZSTK474] |  |  | 86.44 | -1.74 | 95.99 | 74.90 | -0.32 | -2.04 | 85.45 | 95.63 | -0.61 | 
O=C(O)C(=O)O.[NH-][C@@H]1CCCC[C@H]1[NH-].[Pt+2] [Oxaliplatin] | 90.53 | -1.32 | 102.65 | 0.34 | 115.56 | 119.64 | 1.26 | 1.60 | 117.60 |  |  | 
O=C(/C=C/c1ccc(CN(CCO)CCc2c[nH]c3ccccc23)cc1)NO [NVP LAQ824] |  |  | 95.25 | -0.61 | 93.82 | 83.22 | -0.50 | -1.36 | 88.52 | 98.78 | -0.17 | 
NCCCNCCSP(=O)(O)O [Amifostine] |  |  |  |  | 109.04 | 116.51 | 0.73 | 1.34 | 112.78 | 93.47 | -0.91 | Luciferase Assay % Lum [1]: 101.20%; Luciferase Assay Z-score [1]: 0.15
